“And” between values parts separate entries of the source, which are not always exact repeats. Identical values can stand only once. ± gives the expanded uncertainty stated by the source.
Conditions: 308.15 K; 101.33 kPa; Liquid; Concentric cylinders viscometry

viscosity [mPa·s] | SMILES
2.933 ± 0.12 | CCOCCOCCO [3,6-dioxa-1-octanol]
1.503 ± 0.061 | CCOCCO [2-ethoxyethan-1-ol]
1.067 ± 0.044 | CCOCCOCCOCC [diethylene glycol diethyl ether]

Same assay, conditions: 308.15 K; 101.33 kPa; Liquid; Sing-around technique in a fixed-path interferometer

speed of sound [m/s] | SMILES
1581.1 ± 1.6 | OCCOCCOCCO [triethylene glycol]
1339 ± 2.3 | CCOCCOCCO [3,6-dioxa-1-octanol]
1268.6 ± 1.5 | CCOCCO [2-ethoxyethan-1-ol]
1203.9 ± 2.3 | CCOCCOCCOCC [diethylene glycol diethyl ether]

Same assay, conditions: 308.15 K; 101.33 kPa; Liquid; Vibrating tube method

mass density | SMILES
1111.9 ± 2 kg/m3 and 1112.9 ± 2 kg/m3 | OCCOCCOCCO [triethylene glycol]
974.8 ± 4.1 kg/m3 and 976 ± 4.1 kg/m3 | CCOCCOCCO [3,6-dioxa-1-octanol]
918.5 ± 2 kg/m3 | CCOCCO [2-ethoxyethan-1-ol]
892.9 ± 4.1 kg/m3 and 895 ± 4.1 kg/m3 | CCOCCOCCOCC [diethylene glycol diethyl ether]

Same assay, conditions: 313.15 K; 101.33 kPa; Liquid; Concentric cylinders viscometry

viscosity [mPa·s] | SMILES
19.16 ± 0.78 | OCCOCCOCCO [triethylene glycol]
2.592 ± 0.11 | CCOCCOCCO [3,6-dioxa-1-octanol]
1.365 ± 0.056 | CCOCCO [2-ethoxyethan-1-ol]
0.9874 ± 0.041 | CCOCCOCCOCC [diethylene glycol diethyl ether]

Same assay, conditions: 313.15 K; 101.33 kPa; Liquid; Sing-around technique in a fixed-path interferometer

speed of sound [m/s] | SMILES
1566 ± 1.6 | OCCOCCOCCO [triethylene glycol]
1321.7 ± 2.3 | CCOCCOCCO [3,6-dioxa-1-octanol]
1250.2 ± 1.5 | CCOCCO [2-ethoxyethan-1-ol]
1184.1 ± 2.3 | CCOCCOCCOCC [diethylene glycol diethyl ether]

Same assay, conditions: 313.15 K; 101.33 kPa; Liquid; Vibrating tube method

mass density | SMILES
1108 ± 2 kg/m3 and 1109 ± 2 kg/m3 | OCCOCCOCCO [triethylene glycol]
970.3 ± 4.1 kg/m3 and 971.5 ± 4.1 kg/m3 | CCOCCOCCO [3,6-dioxa-1-octanol]
913.8 ± 2 kg/m3 and 913.9 ± 2 kg/m3 | CCOCCO [2-ethoxyethan-1-ol]
888.1 ± 4.1 kg/m3 and 890.1 ± 4.1 kg/m3 | CCOCCOCCOCC [diethylene glycol diethyl ether]

Same assay, conditions: 318.15 K; 101.33 kPa; Liquid; Concentric cylinders viscometry

viscosity [mPa·s] | SMILES
15.86 ± 0.64 | OCCOCCOCCO [triethylene glycol]
2.331 ± 0.097 | CCOCCOCCO [3,6-dioxa-1-octanol]
1.247 ± 0.051 | CCOCCO [2-ethoxyethan-1-ol]
0.916 ± 0.038 | CCOCCOCCOCC [diethylene glycol diethyl ether]

Same assay, conditions: 318.15 K; 101.33 kPa; Liquid; Vibrating tube method

mass density [kg/m3] | SMILES
1105.1 ± 2 | OCCOCCOCCO [triethylene glycol]
967 ± 4.1 | CCOCCOCCO [3,6-dioxa-1-octanol]
909.3 ± 2 | CCOCCO [2-ethoxyethan-1-ol]
885.3 ± 4.1 | CCOCCOCCOCC [diethylene glycol diethyl ether]

Same assay, conditions: 323.15 K; 101.33 kPa; Liquid; Concentric cylinders viscometry

viscosity [mPa·s] | SMILES
13.25 ± 0.54 | OCCOCCOCCO [triethylene glycol]
2.099 ± 0.087 | CCOCCOCCO [3,6-dioxa-1-octanol]
1.143 ± 0.047 | CCOCCO [2-ethoxyethan-1-ol]
0.852 ± 0.036 | CCOCCOCCOCC [diethylene glycol diethyl ether]

Same assay, conditions: 323.15 K; 101.33 kPa; Liquid; Sing-around technique in a fixed-path interferometer

speed of sound [m/s] | SMILES
1536.3 ± 1.6 | OCCOCCOCCO [triethylene glycol]
1286.9 ± 2.3 | CCOCCOCCO [3,6-dioxa-1-octanol]
1213.8 ± 1.5 | CCOCCO [2-ethoxyethan-1-ol]
1145.1 ± 2.3 | CCOCCOCCOCC [diethylene glycol diethyl ether]

Same assay, conditions: 323.15 K; 101.33 kPa; Liquid; Vibrating tube method

mass density | SMILES
1100.2 ± 2 kg/m3 and 1101.2 ± 2 kg/m3 | OCCOCCOCCO [triethylene glycol]
961.3 ± 4.1 kg/m3 and 962.5 ± 4.1 kg/m3 | CCOCCOCCO [3,6-dioxa-1-octanol]
904.5 ± 2 kg/m3 and 904.6 ± 2 kg/m3 | CCOCCO [2-ethoxyethan-1-ol]
878.4 ± 4.1 kg/m3 and 880.4 ± 4.1 kg/m3 | CCOCCOCCOCC [diethylene glycol diethyl ether]

Same assay, conditions: 328.15 K; 101.33 kPa; Liquid; Concentric cylinders viscometry

viscosity [mPa·s] | SMILES
11.19 ± 0.45 | OCCOCCOCCO [triethylene glycol]
1.901 ± 0.079 | CCOCCOCCO [3,6-dioxa-1-octanol]
1.051 ± 0.043 | CCOCCO [2-ethoxyethan-1-ol]
0.795 ± 0.033 | CCOCCOCCOCC [diethylene glycol diethyl ether]

Same assay, conditions: 328.15 K; 101.33 kPa; Liquid; Vibrating tube method

mass density [kg/m3] | SMILES
1097.3 ± 2 | OCCOCCOCCO [triethylene glycol]
958.1 ± 4.1 | CCOCCOCCO [3,6-dioxa-1-octanol]
899.9 ± 2 | CCOCCO [2-ethoxyethan-1-ol]
875.6 ± 4.1 | CCOCCOCCOCC [diethylene glycol diethyl ether]

Same assay, conditions: 333.15 K; 101.33 kPa; Liquid; Concentric cylinders viscometry

viscosity [mPa·s] | SMILES
9.528 ± 0.38 | OCCOCCOCCO [triethylene glycol]
1.718 ± 0.071 | CCOCCOCCO [3,6-dioxa-1-octanol]
0.962 ± 0.039 | CCOCCO [2-ethoxyethan-1-ol]
0.744 ± 0.031 | CCOCCOCCOCC [diethylene glycol diethyl ether]

Same assay, conditions: 333.15 K; 101.33 kPa; Liquid; Sing-around technique in a fixed-path interferometer

speed of sound [m/s] | SMILES
1506.8 ± 1.6 | OCCOCCOCCO [triethylene glycol]
1252.6 ± 2.3 | CCOCCOCCO [3,6-dioxa-1-octanol]

From the NIST ThermoML archive (doi:10.1021/acs.jced.5b00662)
